Like-named read-outs stand apart in the source and are kept apart here.
How the values were obtained:
GBM6 CSCs [1] = assay: FACS analysis of A2B5 positive GBM6 brain tumor CSCs in vitro; type: cell-based, human; conditions: 6 nM, 72 hours
Experimental: GBM6 cells were seeded at 300′000 cells/well into poly-DL-ornithine-coated 6-well plates (10 μg/mL)(Sigma-Aldrich), in stem cell-permissive medium (5 mg/mL Insulin, 0.1 mM Putrescine, […] Transferrin, 2.10^−8M Progesterone, 50 mg/mL Penicillin-Streptomycin and growth factors including 10 ng/mL basic fibroblast growth factor (bFGF), 20 ng/mL epidermal growth factor (EGF) and B27). One day later, cells were treated with BAL27862 for 72 hours. Then, cells were trypsinized, suspended in Hanks' Balanced Salt Solution (HBSS) buffer (Life technologies) containing blocking solution (Miltenyi Biotec) and incubated with A2B5-APC (clone 105HB29, reference 130-093-582) and CD133-PE (clone 293C3, reference 130-090-853) antibodies (Miltenyi Biotec) for 10 minutes. Cells were then fixed with 10% paraformaldehyde (Sigma-Aldrich) for 20 minutes and analyzed using flow cytometry (FACS Calibur™ BD Biosciences). A total of 100′000 events were counted for each sample and data were recorded with the CellQuest Pro Software (BD Biosciences) and analyzed using FlowJo software (Tree Star Inc., San Carlos, Calif.) and the Dean-Jet-Fox model analysis.

GBM9 CSCs [2] = assay: Transwell cell migration assay; type: cell-based, human; conditions: 5 hours transmigration
Experimental: (§1) Stem cells (50′000) were poured on the upper side of a transwell migration chamber ([…] filter, BD) in DMEM. The lower side of the chamber was filled with DMEM, supplemented with 10% FCS. Cells were allowed to transmigrate for 5 hours and then chambers were removed. […] After washing and drying, pictures of six fields per condition were imaged at a magnification of 10× and transmigrated cells were counted.

GBM6 CSCs [3] = assay: Transwell cell migration assay; type: cell-based, human
Experimental: as §1

GBM6 CSCs [4] = assay: Self-renewal capacity determination (sphere formation); type: cell-based, human; conditions: 6 nM, 72 hours
Experimental: GBM6 cells were seeded in previously poly-DL-ornithine (Sigma-Aldrich) coated 6-well plates (150′000 cells/well). After 24 hours, cells were treated or not with BAL27862 for 72 hours. At the end of treatment, the supernatant was removed and cells were harvested, dissociated into single cells and plated in 96-well plates (1-5 cells/well). Eight days later, the spheres were counted under an inverted light microscope (Leica DMI 4000B) (Leica, Saint Jorioz, France). Three independent experiments were performed.

GBM6 CSCs [5] = assay: Clonogenic survival assay; type: cell-based, human; conditions: 6 and 10 nM, 72 hours
Experimental: Cells were grown in previously poly-DL-ornithine (Sigma-Aldrich) coated 6-well plates (1000 cells/well) and after treatment for 72 hours with BAL27862, incubated for up to 5 days. Colonies were stained with 1% Crystal-violet solution in 20% methanol (Sigma-Aldrich). The colonies with more than 50 cells were counted. At least three independent experiments were performed.

GBM9 CSCs [6] = assay: Cytotoxic assay (sulforhodamine B growth inhibition, 72 hours); type: cell-based, human; conditions: at least three independent experiments, read-out: EC50 +/− SEM, cytotoxic activity
Experimental: (§2) Cells (5000 cells/well) were seeded in previously poly-DL-ornithine (Sigma-Aldrich) coated 96-well plates (10 μg/mL) and allowed to grow for 24 hours before treatment with BAL27862. Growth inhibition of cells was measured after 72 hours by using a sulforhodamine B assay kit (Sigma-Aldrich). Cell density was analyzed using a microplate reader (Labsystems Multiscan, Thermo, Villebon sur Yvette, France) and analysis of EC50 were performed with GraphPad 5.0 statistical software (GraphPad Software, La Jolla, USA). At least three independent experiments were performed.

GBM6 CSCs [7] = assay: as above; type: cell-based, human; conditions: at least three independent experiments, read-out: EC50 +/− SEM, cytotoxic activity
Experimental: as §2

orthotopic GBM6 tumors [8] = assay: FACS analysis of A2B5 brain tumor cancer stem cells from orthotopic GBM6 tumors; type: in vivo, mouse; conditions: 25 mg/kg i.v. days 30/33/36, day 45
Experimental: (§3) Approximately 100′000 cells of GBM6 GFP sh0 or shEB1 cells were stereotactically injected into the subventricular zone (0.5 mm anterior to bregma, −1 mm lateral, and −2.1 mm deep to the cortex surface) of 6-week-old athymic Nude mice. Grafted mice were intravenously treated with 25 mg/kg BAL101553 (three times at 30, 33 and 36 days after glioma implantation) or with vehicle (control). Forty five days after implantation, three animals of each group were sacrificed for analysis of tumor volumes (by three-dimensional brain reconstructions) or for FACS analysis.
After anesthesia, animals were perfused with PBS, and brains were removed and stored in HBSS buffer containing 2% FBS. Cells were dissociated in a cocktail of enzymes (DNase I (Roche, Rotkreuz, Switzerland), Collagenase D (Roche) and V (Sigma-Aldrich) with GentleMACS dissociator (Miltenyi Biotech)). The reaction was stopped by adding DMEM containing 10% FCS. The suspension was filtered and cells were resuspended in 40% Percoll (Sigma-Aldrich). After centrifugation, myelin was removed and cells were resuspended in HBSS buffer containing 2% FCS. Cells were incubated in HBSS containing 2% FCS with A2B5-APC and CD133-PE antibodies for 10 minutes. Cells were then fixed with 10% paraformaldehyde for 20 minutes and analyzed using flow cytometry. A total of 100′000 events were counted for each sample and data were recorded with the CellQuest Pro Software and analyzed using FlowJo software choosing the Dean-Jet-Fox model analysis.

orthotopic GBM6 tumors [9] = assay: Orthotopic GBM6 xenografts, tumor volume by three-dimensional brain reconstruction; type: in vivo, mouse; conditions: 25 mg/kg i.v. days 30/33/36, day 45
Experimental: as §3
For analysis of tumor volumes, mice were anesthetized and perfused with 4% paraformaldehyde. Brains were removed and fixed in 4% paraformaldehyde for 2 days at 4° C., then rinsed and conserved in PBS until dissection. Brains were entirely cut into 50-100-μm-thick sections using Vibratome (Leica) following the sagittal axis. A total of 60 sections per brain were obtained. Mapping and analysis of GFP-injected cells and tumors were performed by using a Leica DMLB fluorescence microscope, a Leica DC300F digital camera, and the Leica FW4000 imaging software (Leica). Three-dimensional brain reconstructions were obtained using FreeD software (Andrey P., Free-D: an integrated environment for three-dimensional reconstruction from serial sections. Journal of Neuroscience Methods. 2005; 145(1-2):233-244). […]

[10] = GBM6 GFP shEB1 (EB1 downregulated)
[11] = GBM6 GFP sh0 (normal EB1 levels)

SMILES: N#CCCNc1nonc1-c1nc2ccccc2n1CC(=O)c1ccc(N)cc1 [BAL27862, 3-(4-{1-[2-(4-amino-phenyl)-2-oxo-ethyl]-1H-benzoimidazol-2-yl}-furazan-3-ylamino)-propionitrile]
- A2B5 positive cell number (GBM6 CSCs [1]; GBM6 GFP sh0 (EB1 expressed)): significant inhibition
- A2B5 positive cell number (GBM6 CSCs [1]; [10]): less sensitive
- inhibition of cell migration (GBM9 CSCs [2]; GBM9, cytotoxic 20 nM): drastically inhibited the migration
- inhibition of cell migration (GBM9 CSCs [2]; GBM9, non-cytotoxic 6 nM): did not respond
- inhibition of cell migration (GBM6 CSCs [3]; EB1 downregulated GBM6 cells (shEB1), 6 nM): inhibitory effect of BAL27862 treatment was drastically reduced
- inhibition of cell migration (GBM6 CSCs [3]; GBM6, cytotoxic 20 nM, 5 hours transmigration): drastically inhibited the migration
- inhibition of cell migration (GBM6 CSCs [3]; GBM6, non-cytotoxic 6 nM, 5 hours transmigration): statistically significant inhibition of cell migration
- inhibition of cell migration (GBM6 CSCs [3]; control EB1-expressing GBM6 cells, 6 nM): statistically significant inhibition of cell migration
- sphere formation (GBM6 CSCs [4]; [11]): interferes statistically significantly with sphere formation
- sphere formation (GBM6 CSCs [4]; [10]): suppresses the inhibitory activity of BAL27862
- sphere formation (GBM6 CSCs [4]; GBM6 wild-type): interferes statistically significantly with sphere formation
- clonogenic capacity (colony formation) (GBM6 CSCs [5]; [11]): impaired the clonogenic capacity of GBM6 CSCs at the sub-toxic doses of 6 and 10 nM in a statistically significant manner
- clonogenic capacity (colony formation) (GBM6 CSCs [5]; GBM6 GFP shEB1 (EB1 levels downregulated)): only in the EB1-expressing cells
- EC50 (GBM9 CSCs [6]; Homo sapiens, 72 h): ~20 nM
- EC50 (GBM9 CSCs [6]): 21.7 nM
- EC50 (GBM6 CSCs [7]; Homo sapiens, GBM6, 72 h): ~20 nM
- EC50 (GBM6 CSCs [7]): 20.8 nM

SMILES: N#CCCNc1nonc1-c1nc2ccccc2n1CC(=O)c1ccc(NC(=O)[C@@H](N)CCCCN)cc1 [BAL101553]
- proportion of A2B5 positive GBM6 cells (orthotopic GBM6 tumors [8]; EB1 downregulated GBM6 tumors): ~80%
- proportion of A2B5 negative GBM6 cells (orthotopic GBM6 tumors [8]; EB1 expressing GBM6 tumors): 80%
- proportion of A2B5 positive GBM6 cells (orthotopic GBM6 tumors [8]; EB1 expressing GBM6 tumors): 20%
- tumor mass (size) and tumor spreading versus vehicle (orthotopic GBM6 tumors [9]; GBM6 GFP sh0 (EB1-expressing) tumors): clear reduction of the tumor mass (size) and in tumor spreading
- tumor mass (size) and tumor spreading versus vehicle (orthotopic GBM6 tumors [9]; GBM6 GFP shEB1 (EB1 negative) tumors): minimal

From patent US20180306790A1, “USE OF EB1 AS A BIOMARKER OF DRUG RESPONSE” (BASILEA PHARMACEUTICA INTERNATIONAL AG, priority 2015, published 2018)
